# Reference: PMC9046089, “CCNE1 amplification is synthetic lethal with PKMYT1 kinase inhibition” (Nature, 2022)
# Where “and” joins values, the source holds several entries; their conditions need not be identical. Identical values can stand only once.
# Columns and labels:
# human recombinant PKMYT1 = molecular target: T1, human recombinant PKMYT1 (Homo sapiens, UniProt Q99640); test: ADP-Glo kinase assay of PKMYT1 catalytic activity; type: biochemical
# T1 construct: full-length human GST–PKMYT1 recombinant protein; GST (N); purchased Thermo Fisher Scientific A33387
# T1 sequence (Q99640 1-499): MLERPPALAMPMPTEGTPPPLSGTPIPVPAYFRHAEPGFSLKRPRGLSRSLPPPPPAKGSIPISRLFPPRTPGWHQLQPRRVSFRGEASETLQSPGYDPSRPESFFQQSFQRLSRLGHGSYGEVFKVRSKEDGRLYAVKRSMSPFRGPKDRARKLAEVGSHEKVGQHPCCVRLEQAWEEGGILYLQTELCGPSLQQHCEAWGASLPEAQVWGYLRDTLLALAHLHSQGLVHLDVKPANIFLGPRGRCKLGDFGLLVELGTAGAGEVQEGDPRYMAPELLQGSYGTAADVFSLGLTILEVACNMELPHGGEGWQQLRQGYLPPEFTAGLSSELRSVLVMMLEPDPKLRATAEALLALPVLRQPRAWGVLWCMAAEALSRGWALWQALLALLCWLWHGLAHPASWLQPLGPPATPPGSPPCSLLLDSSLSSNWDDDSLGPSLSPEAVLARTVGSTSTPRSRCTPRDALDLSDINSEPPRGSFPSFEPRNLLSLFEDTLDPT
# [1] = system: cyclin B, CDK1, CDK1-pT14; test: Immunoblot of cyclin B, CDK1 and CDK1-pT14 after HU or gemcitabine; conditions: for Quantitation of CDK1 (immunoblot of whole cell lysates) / Quantitation of CDK1-pT14 relative to total CDK1 (immunoblot of whole cell lysates) / Quantitation of cyclin B (immunoblot of whole cell lysates): FT282-hTERT-p53-R175H, DMSO = 1; for levels of cyclin B or CDK1: immunoblot and QIBC; for CDK1 pT14 levels: immunoblot, controlling for total CDK1
# cytoplasmic cyclin B = test: QIBC of cytoplasmic cyclin B intensity in EdU+ cells after HU or gemcitabine; type: cell-based; conditions: 48 h
# Procedure: Before collection, cells were pulsed with 20 μM EdU (5-ethynyl-2-deoxyuridine, Life Technologies cat. no. A10044) for 30 min and then washed with PBS and fixed with 4% paraformaldehyde (PFA) in PBS for 15 min at room temperature. Cells were then rinsed with PBS and permeabilized using 0.3% Triton X-100/PBS for 30 min. For chromatin-bound MCM measurements, cells were pre-extracted for 15 min on ice with CSK buffer (300 mM sucrose, 100 mM NaCl, 3 mM MgCl2, 10 mM PIPES pH 7.0, 0.5% v/v Triton-X 100) before PFA fixation. […] Fresh blocking buffer containing primary antibodies was added for 2 h. Cells were rinsed three times with PBS and then blocking buffer, with secondary antibodies and 0.4 μg ml^−1 DAPI (4,6-diamidino-2-phenylindole, Sigma-Aldrich, cat. no. D9542) was added for 1 h. After rinsing with PBS, immunocomplexes were fixed again using 4% PFA/PBS for 5 min.
# Cells were fixed, permeabilized and stained in the same manner as immunofluorescence described above. Wells were filled with 200 μl PBS and images were acquired at the Network Biology Collaborative Centre (LTRI) on an InCell Analyzer 6000 automated microscope (GE Life Sciences) with a 20× objective. Image analysis was performed using Cellprofiler 3.1.9 and RStudio v1.2.5019[57] (Supplementary Fig. 4).
# HCC1569 cells = test: Cell proliferation assay (Incucyte growth inhibition, synergy); type: cell-based; conditions: for % growth relative to untreated: RP-6306 0
# Description: (§1) Per cent confluence relative to a non-treated control was used to evaluate growth inhibition induced by test compounds. […] (https://synergyfinder.fimm.fi).
# [2] = system: RPE1-hTERT TP53-/- Cas9 CCNE1-high cells; test: Cell proliferation assay (Incucyte growth inhibition); type: cell-based; conditions: read-out: RP-6306 EC50 (mM) RPE1 CCNE1 (C2), growth inhibition, three replicates
# Description: as §1
# NUGC3 cells = test: as above; type: cell-based; conditions: growth inhibition, three replicates
# Description: as §1
# OVCAR3 cells = test: as above; type: cell-based; conditions: growth inhibition, three replicates
# Description: as §1
# SNU8 cells = test: as above; type: cell-based; conditions: three replicates
# Description: as §1
# KYSE30 cells = test: as above; type: cell-based; conditions: growth inhibition, three replicates
# Description: as §1
# TOV112D cells = test: as above; type: cell-based; conditions: three replicates
# Description: as §1
# [3] = system: RPE1-hTERT TP53-/- Cas9 parental cells; test: as above; type: cell-based; conditions: read-out: RP-6306 EC50 (mM) RPE1 WT, growth inhibition, three replicates
# Description: as §1
# SUM149PT cells = test: as above; type: cell-based; conditions: three replicates
# Description: as §1
# DOTC24510 cells = test: as above; type: cell-based; conditions: growth inhibition, three replicates
# Description: as §1
# COV362 cells = test: as above; type: cell-based; conditions: growth inhibition, three replicates
# Description: as §1
compound,measurement,setting,value
Cc1cnc2c(c1)c(C(N)=O)c(N)n2-c1c(C)cccc1C [RP-6421],effect on PKMYT1 catalytic activity,human recombinant PKMYT1; ADP-Glo dose-response,no effect
same,"PKMYT1 catalytic activity, ADP-Glo signal","human recombinant PKMYT1; c0 (log10 concentration, head mM) 1",13700
same,"PKMYT1 catalytic activity, ADP-Glo signal","human recombinant PKMYT1; c0 (log10 concentration, head mM) -0.57777",15400
same,"PKMYT1 catalytic activity, ADP-Glo signal","human recombinant PKMYT1; c0 (log10 concentration, head mM) -2.18442",16550
same,"PKMYT1 catalytic activity, ADP-Glo signal","human recombinant PKMYT1; c0 (log10 concentration, head mM) -3.8365",15000
same,"PKMYT1 catalytic activity, ADP-Glo signal","human recombinant PKMYT1; c0 (log10 concentration, head mM) -5.64386",14750
same,"PKMYT1 catalytic activity, ADP-Glo signal","human recombinant PKMYT1; c0 (log10 concentration, head mM) -6.93016",14350
same,"PKMYT1 catalytic activity, ADP-Glo signal","human recombinant PKMYT1; c0 (log10 concentration, head mM) -8.53282",14150
same,"PKMYT1 catalytic activity, ADP-Glo signal","human recombinant PKMYT1; c0 (log10 concentration, head mM) -10.0955",14900
same,"PKMYT1 catalytic activity, ADP-Glo signal","human recombinant PKMYT1; c0 (log10 concentration, head mM) -11.6789",15800
same,"PKMYT1 catalytic activity, ADP-Glo signal","human recombinant PKMYT1; c0 (log10 concentration, head mM) -13.2591",15500
Nc1ccn([C@@H]2O[C@H](CO)[C@@H](O)C2(F)F)c(=O)n1 [gemcitabine],Quantitation of CDK1 (immunoblot of whole cell lysates),[1]; 5 nM Gemcitabine,1.203 and 0.9791 and 1.593
same,Quantitation of CDK1-pT14 relative to total CDK1 (immunoblot of whole cell lysates),[1]; 5 nM Gemcitabine,1.528 and 2.085 and 1.888
same,Quantitation of cyclin B (immunoblot of whole cell lysates),[1]; 5 nM Gemcitabine,1.877 and 1.201 and 1.262
same,levels of cyclin B or CDK1,[1],did not detect increased levels
same,CDK1 pT14 levels,[1],increased
same,fold-change of cytoplasmic cyclin B intensity in EdU+ cells,"cytoplasmic cyclin B; FT282-hTERT-p53-R175H CCNE1 high (C3), gemcitabine 5 nM",1.161 and 1.404 and 1.38
same,fold-change of cytoplasmic cyclin B intensity in EdU+ cells,"cytoplasmic cyclin B; FT282-hTERT-p53-R175H WT, gemcitabine 5 nM",1.346 and 1.467 and 1.135
same,growth relative to DMSO control,"HCC1569 cells; 0.556 nM gemcitabine, DMSO = 100",76.36 and 70.43
same,% growth relative to untreated,HCC1569 cells; gemcitabine 0.0524288 nM,96.4701%
same,% growth relative to untreated,HCC1569 cells; gemcitabine 0.131072 nM,85.3567%
same,% growth relative to untreated,HCC1569 cells; gemcitabine 0.32768 nM,85.2938%
same,% growth relative to untreated,HCC1569 cells; gemcitabine 0.8192 nM,45.6374%
same,% growth relative to untreated,HCC1569 cells; gemcitabine 2.048 nM,16.2355%
same,% growth relative to untreated,HCC1569 cells; gemcitabine 5.12 nM,11.6895%
same,% growth relative to untreated,HCC1569 cells; gemcitabine 12.8 nM,9.354%
same,% growth relative to untreated,HCC1569 cells; gemcitabine 32 nM,7.468%
same,% growth relative to untreated,HCC1569 cells; gemcitabine 80 nM,5.95%
NC(=O)NO [hydroxyurea],Quantitation of CDK1 (immunoblot of whole cell lysates),"[1]; 400 µM HU, listed as HU",1.2117 and 1.452 and 2.133
same,Quantitation of CDK1-pT14 relative to total CDK1 (immunoblot of whole cell lysates),"[1]; 400 µM HU, listed as HU",1.45 and 1.634 and 1.7444
same,Quantitation of cyclin B (immunoblot of whole cell lysates),"[1]; 400 µM HU, listed as HU",1.625 and 1.428 and 1.053
same,levels of cyclin B or CDK1,[1],did not detect increased levels
same,CDK1 pT14 levels,[1],increased
same,fold-change of cytoplasmic cyclin B intensity in EdU+ cells,"cytoplasmic cyclin B; FT282-hTERT-p53-R175H CCNE1 high (C3), HU 50 mM (so in the source), listed as HU",0.9979 and 0.9823 and 1.013
same,fold-change of cytoplasmic cyclin B intensity in EdU+ cells,"cytoplasmic cyclin B; FT282-hTERT-p53-R175H CCNE1 high (C3), HU 100 mM (so in the source), listed as HU",1.038 and 1.0461 and 1.056
same,fold-change of cytoplasmic cyclin B intensity in EdU+ cells,"cytoplasmic cyclin B; FT282-hTERT-p53-R175H CCNE1 high (C3), HU 200 mM (so in the source), listed as HU",1.095 and 1.0628 and 1.094
same,fold-change of cytoplasmic cyclin B intensity in EdU+ cells,"cytoplasmic cyclin B; FT282-hTERT-p53-R175H CCNE1 high (C3), HU 400 mM (so in the source), listed as HU",1.408 and 1.403 and 1.354
same,fold-change of cytoplasmic cyclin B intensity in EdU+ cells,"cytoplasmic cyclin B; FT282-hTERT-p53-R175H WT, HU 50 mM (so in the source), listed as HU",1.011 and 1.029 and 1.0186
same,fold-change of cytoplasmic cyclin B intensity in EdU+ cells,"cytoplasmic cyclin B; FT282-hTERT-p53-R175H WT, HU 100 mM (so in the source), listed as HU",1.025 and 1.031 and 1.053
same,fold-change of cytoplasmic cyclin B intensity in EdU+ cells,"cytoplasmic cyclin B; FT282-hTERT-p53-R175H WT, HU 200 mM (so in the source), listed as HU",1.0835 and 1.059 and 1.12
same,fold-change of cytoplasmic cyclin B intensity in EdU+ cells,"cytoplasmic cyclin B; FT282-hTERT-p53-R175H WT, HU 400 mM (so in the source), listed as HU",1.261 and 1.177 and 1.385
C[C@@]1(O)CCC[C@H]1n1c(=O)c(C(F)F)cc2cnc(NC3CCN(S(C)(=O)=O)CC3)nc21 [PF-06873600],EC50,[2],0.000125 mM
same,EC50,NUGC3 cells,28 nM and 25 nM and 22 nM
same,EC50,OVCAR3 cells,46 nM and 37 nM and 35 nM
same,EC50,SNU8 cells,21 nM and 50 nM and 43 nM
same,EC50,KYSE30 cells,32 nM and 22 nM and 29 nM
same,EC50,TOV112D cells,43 nM and 47 nM and 42 nM
same,EC50,[3],98 nM and 79 nM and 106 nM
same,EC50,SUM149PT cells,75 nM and 85 nM and 80 nM
same,EC50,DOTC24510 cells,56 nM and 41 nM and 28 nM
same,EC50,COV362 cells,94 nM and 93 nM
same,EC50,"HCC1569 cells; growth inhibition, three replicates",37 nM and 41 nM and 40 nM
